{"source": "patent US10688099B2", "about": "“Methods for modulating the amount of RNA transcripts” (PTC Therapeutics, Inc., priority 2013, dated 2020)", "system": "RNA isoforms in PNN 1-46 SMA type I patient-derived fibroblasts", "assay": "RNA Abundance Modulation (RNA isoform abundance, iFPM, HiSeq RNA sequencing)", "type": "cell-based, human", "conditions": "3 μM", "method": "Cells from a cell line of interest are cultured in conditions sufficient to yield the number of cells capable of generating enough RNA for subsequent sequencing steps. Cells from the tested cell line are contacted with a compound described herein.\nTo culture said cells, they are seeded, at appropriate concentrations in a volume of media in a cell culture container and incubated for 4, 5, 6, 7, 8, 9, 10, or more hours. A concentrated solution of compound in a vehicle (e.g., DMSO) is then added in sufficient volume to result in the intended final concentration of the compound, for example 100 nM, 500 nM, 1 μM, 5 μM, 10 μM, 15 μM, 20 μM, or more. The cells may also be treated with vehicle alone, as a control. A number of replicates of each concentration or control may be made (e.g., 2 replicates). The cells are then incubated at a constant temperature appropriate for cell culture of the particular cell line (e.g., 37° C.) for 6, 12, 18, 24, 48, or more hours. After incubation, the growth medium is removed and the cells are washed with the appropriate buffer (e.g., PBS). Cells are then removed from adherence to the cell culture container by treatment with a solution containing trypsin, and the trypsin subsequently quenched with the appropriate volume of buffer (e.g., DMEM-FBS). The cells are then pelleted with gentle centrifugation (e.g., ≤90×g centrifugal force) and resuspended in a buffer to lyse the cells for extraction of RNA. The cell lysates may then be frozen (e.g., at −80° C.) or, alternately, may immediately be used in a procedure to purify the RNA (e.g. by use of the RNEASY PLUS® minikit). The RNA from cell lysates is eluted in the appropriate volume of buffer (e.g., RNEASE-FREE H2O®). The resulting purified RNA may then be sequenced (e.g., using RNASeq) or analyzed using a human exon array (e.g., by GENECHIP® human exon array) to determine changes in the RNA levels in those cells treated with compound compared to those cells treated only with DMSO. The purified RNA may also be quantified by other methods known in the art.\nUsing the RNA data obtained from sequencing, exon array, or other methods, a statistical analysis can reveal changes in the RNA levels of compound-treated compared with control. For example, t-test p-values may be calculated for the data obtained through sequencing and exon array methods in order to compare compound-treated cells to those treated with the DMSO control. […] Analysis of the sequencing and exon array data may then also yield predictions about the cause of the aberrant amount of an RNA transcript in the cells (e.g., perturbation of RNA splicing, RNA transcription, or RNA stability). These predictions may be further confirmed by methods known in the art. For example, RT-PCR and RT-qPCR may be used to confirm the change in amount of RNA transcripts for one or more particular transcripts of interest.\nFollowing the methods described above in Example 1, PNN 1-46 SMA type I patient-derived fibroblasts were treated with 300 nM or 3 μM Compounds 774 and 808 in 0.5% DMSO.\n700,000 cells were seeded in 10 mL of medium (DMEM plus 10% FBS) in a T-75 flask. Cells were allowed to attach for at least 4 hrs, after which 50 μL of a 200× compound solution (100% DMSO) was added to each well, and the plate was incubated at 37° C. for 24 hrs.\nAt the end of the incubation period, the supernatant was removed and the cells where washed with PBS. TrypLE (Invitrogen) express solution was added (e.g. 1.5 mL per one T75 flask). The flasks were incubated for 3 to 5 min at 37° C. The trypsin was then quenched, e.g., by adding 10 mL DMEM-FBS.\nNext, the cells were pelleted using gentle centrifugation without exceeding 90×g centrifugal force. The supernatant was removed and the cell pellet was re-suspended in 600 μL RLT buffer (the RLT buffer was supplemented with beta-mercaptoethanol according to the RNeasy protocol manual) by pipetting up and down until the pellet was completely dissolved […]"}
{"smiles": "CCc1nc(C)cn2nc(-c3cc(=O)n4cc(C5CCN(C)CC5)cc(C)c4n3)cc12", "note": "[Compound 774]", "values": [{"measurement": "L2FC (x + 1)", "setting": "TBC1D15 NR_027449", "result": "−2.621"}, {"measurement": "L2abs (Cpd-DMSO)", "setting": "TBC1D15 NR_027449", "result": 6.94}, {"measurement": "abs (Cpd-DMSO)", "setting": "TBC1D15 NR_027449", "result": 123, "unit": "iFPM"}, {"measurement": "amp FC (x + 1)", "setting": "TBC1D15 NR_027449", "result": 6.15}, {"measurement": "ave Cpd", "setting": "TBC1D15 NR_027449", "result": 23, "unit": "iFPM"}, {"measurement": "FC (x + 1)", "setting": "TEP1 AB209669", "result": 1.0000}, {"measurement": "L2FC (x + 1)", "setting": "TEP1 AB209669", "result": 0.000}, {"measurement": "L2abs (Cpd-DMSO)", "setting": "TEP1 AB209669", "result": 0}, {"measurement": "abs (Cpd-DMSO)", "setting": "TEP1 AB209669", "result": 0, "unit": "iFPM"}, {"measurement": "amp FC (x + 1)", "setting": "TEP1 AB209669", "result": 1.00}, {"measurement": "ave Cpd", "setting": "TEP1 AB209669", "result": 0, "unit": "iFPM"}, {"measurement": "FC (x + 1)", "setting": "TEP1 AK303307", "result": 1.3304}, {"measurement": "L2FC (x + 1)", "setting": "TEP1 AK303307", "result": 0.412}, {"measurement": "L2abs (Cpd-DMSO)", "setting": "TEP1 AK303307", "result": 1.91}, {"measurement": "abs (Cpd-DMSO)", "setting": "TEP1 AK303307", "result": 4, "unit": "iFPM"}, {"measurement": "amp FC (x + 1)", "setting": "TEP1 AK303307", "result": 1.33}, {"measurement": "ave Cpd", "setting": "TEP1 AK303307", "result": 14, "unit": "iFPM"}, {"measurement": "FC (x + 1)", "setting": "TEP1 BC143812", "result": 0.8125}, {"measurement": "L2FC (x + 1)", "setting": "TEP1 BC143812", "result": "−0.300"}, {"measurement": "L2abs (Cpd-DMSO)", "setting": "TEP1 BC143812", "result": 4.99}, {"measurement": "abs (Cpd-DMSO)", "setting": "TEP1 BC143812", "result": 32, "unit": "iFPM"}, {"measurement": "amp FC (x + 1)", "setting": "TEP1 BC143812", "result": 1.23}, {"measurement": "ave Cpd", "setting": "TEP1 BC143812", "result": 137, "unit": "iFPM"}, {"measurement": "FC (x + 1)", "setting": "TEP1 BC143815", "result": 0.0138}, {"measurement": "L2FC (x + 1)", "setting": "TEP1 BC143815", "result": "−6.184"}, {"measurement": "L2abs (Cpd-DMSO)", "setting": "TEP1 BC143815", "result": 6.16}, {"measurement": "abs (Cpd-DMSO)", "setting": "TEP1 BC143815", "result": 72, "unit": "iFPM"}, {"measurement": "amp FC (x + 1)", "setting": "TEP1 BC143815", "result": 72.71}, {"measurement": "ave Cpd", "setting": "TEP1 BC143815", "result": 0, "unit": "iFPM"}, {"measurement": "FC (x + 1)", "setting": "TEP1 BX640983", "result": 1.1188}, {"measurement": "L2FC (x + 1)", "setting": "TEP1 BX640983", "result": 0.162}, {"measurement": "L2abs (Cpd-DMSO)", "setting": "TEP1 BX640983", "result": 0.61}, {"measurement": "abs (Cpd-DMSO)", "setting": "TEP1 BX640983", "result": 2, "unit": "iFPM"}, {"measurement": "amp FC (x + 1)", "setting": "TEP1 BX640983", "result": 1.12}, {"measurement": "ave Cpd", "setting": "TEP1 BX640983", "result": 13, "unit": "iFPM"}, {"measurement": "FC (x + 1)", "setting": "TEP1 NM_007110", "result": 1.0236}, {"measurement": "L2FC (x + 1)", "setting": "TEP1 NM_007110", "result": 0.034}, {"measurement": "L2abs (Cpd-DMSO)", "setting": "TEP1 NM_007110", "result": 3.20}, {"measurement": "abs (Cpd-DMSO)", "setting": "TEP1 NM_007110", "result": 9, "unit": "iFPM"}, {"measurement": "amp FC (x + 1)", "setting": "TEP1 NM_007110", "result": 1.02}, {"measurement": "ave Cpd", "setting": "TEP1 NM_007110", "result": 397, "unit": "iFPM"}, {"measurement": "FC (x + 1)", "setting": "TFCP2 AK308087", "result": 0.8370}, {"measurement": "L2FC (x + 1)", "setting": "TFCP2 AK308087", "result": "−0.257"}, {"measurement": "L2abs (Cpd-DMSO)", "setting": "TFCP2 AK308087", "result": 4.27}, {"measurement": "abs (Cpd-DMSO)", "setting": "TFCP2 AK308087", "result": 19, "unit": "iFPM"}, {"measurement": "amp FC (x + 1)", "setting": "TFCP2 AK308087", "result": 1.19}, {"measurement": "ave Cpd", "setting": "TFCP2 AK308087", "result": 98, "unit": "iFPM"}, {"measurement": "FC (x + 1)", "setting": "TFCP2 NM_005653", "result": 0.8324}, {"measurement": "L2FC (x + 1)", "setting": "TFCP2 NM_005653", "result": "−0.265"}, {"measurement": "L2abs (Cpd-DMSO)", "setting": "TFCP2 NM_005653", "result": 7.35}, {"measurement": "abs (Cpd-DMSO)", "setting": "TFCP2 NM_005653", "result": 163, "unit": "iFPM"}, {"measurement": "amp FC (x + 1)", "setting": "TFCP2 NM_005653", "result": 1.20}, {"measurement": "ave Cpd", "setting": "TFCP2 NM_005653", "result": 808, "unit": "iFPM"}, {"measurement": "FC (x + 1)", "setting": "TFCP2 NM_001173452", "result": 4.0384}, {"measurement": "L2FC (x + 1)", "setting": "TFCP2 NM_001173452", "result": 2.014}, {"measurement": "L2abs (Cpd-DMSO)", "setting": "TFCP2 NM_001173452", "result": 7.49}, {"measurement": "abs (Cpd-DMSO)", "setting": "TFCP2 NM_001173452", "result": 180, "unit": "iFPM"}, {"measurement": "amp FC (x + 1)", "setting": "TFCP2 NM_001173452", "result": 4.04}, {"measurement": "ave Cpd", "setting": "TFCP2 NM_001173452", "result": 239, "unit": "iFPM"}, {"measurement": "FC (x + 1)", "setting": "TFCP2 NM_001173453", "result": 0.0531}, {"measurement": "L2FC (x + 1)", "setting": "TFCP2 NM_001173453", "result": "−4.236"}, {"measurement": "L2abs (Cpd-DMSO)", "setting": "TFCP2 NM_001173453", "result": 4.16}, {"measurement": "abs (Cpd-DMSO)", "setting": "TFCP2 NM_001173453", "result": 18, "unit": "iFPM"}, {"measurement": "amp FC (x + 1)", "setting": "TFCP2 NM_001173453", "result": 18.84}, {"measurement": "ave Cpd", "setting": "TFCP2 NM_001173453", "result": 0, "unit": "iFPM"}, {"measurement": "FC (x + 1)", "setting": "TGFBRAP1 AK021697", "result": 0.2793}, {"measurement": "L2FC (x + 1)", "setting": "TGFBRAP1 AK021697", "result": "−1.840"}, {"measurement": "L2abs (Cpd-DMSO)", "setting": "TGFBRAP1 AK021697", "result": 4.66}, {"measurement": "abs (Cpd-DMSO)", "setting": "TGFBRAP1 AK021697", "result": 25, "unit": "iFPM"}, {"measurement": "amp FC (x + 1)", "setting": "TGFBRAP1 AK021697", "result": 3.58}, {"measurement": "ave Cpd", "setting": "TGFBRAP1 AK021697", "result": 9, "unit": "iFPM"}, {"measurement": "FC (x + 1)", "setting": "TGFBRAP1 NM_004257", "result": 0.0064}, {"measurement": "L2FC (x + 1)", "setting": "TGFBRAP1 NM_004257", "result": "−7.294"}, {"measurement": "L2abs (Cpd-DMSO)", "setting": "TGFBRAP1 NM_004257", "result": 7.29}, {"measurement": "abs (Cpd-DMSO)", "setting": "TGFBRAP1 NM_004257", "result": 156, "unit": "iFPM"}]}
